Laboratory results taken from PMC10458471, “Electrophysiological Assessment of Newly Synthesized 2,3-Benzodiazepine Derivatives for Inhibiting the AMPA Receptor Channel” (Molecules, 2023).
Where two headings read alike, the source gives them in different places.

Legend:
Assay type in all cases: cell-based
GluA1 = molecular target: T1, GluA1 (Rattus norvegicus, UniProt P19490); experiment: Whole-cell patch-clamp recording of homomeric GluA1 AMPAR expressed in HEK293T cells; conditions: for Amplitude with compound: 10 mM glutamate + 16 µM compound, mean±SEM; for Amplitude with compound / A/AI (current amplitude ratio without/with compound) / t deact (weighted deactivation time constant) / t des (weighted desensitization time constant) / Amplitude, applying glutamate alone after compound: n=8; for A/AI (current amplitude ratio without/with compound): 10 mM glutamate, 16 µM compound; for t deact (weighted deactivation time constant): 1 ms 10 mM glutamate + 16 µM compound; for t des (weighted desensitization time constant): 500 ms 10 mM glutamate + 16 µM compound; for Amplitude, applying glutamate alone after compound: washout/recovery
T1 construct: expressed in transfected cells; host or cells: HEK293T
Experimental: (§1) For the DNA preparation, the QIAGEN Plasmid Mini Kit was used to prepare up to 20 µg of high-copy plasmid DNA [30]. All AMPAR subunits utilized in this study included the flip isoform received from S. F. Heinemann (Salk Institute, La Jolla, CA, USA) and sub-cloned in pRK for expression in Human Embryonic Kidney Cells 293 (HEK293T). The human embryonic kidney (HEK293T) cells were obtained from Sigma, Taufkirchen, Germany, and we only used the HEK293T cell line due to their ease of growth and transfection and wide utilization in cell culture. For the transfection, we used the constructs GluA1, GluA2, GluA2/3, and GluA1/2, along with the GFP-expressing construct, as described in our previous work. The transfection reagents utilized were jetPRIME (Polyplus: New York, NY, USA) or Lipofectamine 2000 (Invitrogen; San Diego, CA, USA). The highly fluorescent cells were identified and selected for recording. The selected cells were seeded in Dulbecco Modified Eagle Medium (DMEM) (Sigma, Roedermark, Germany) containing 10% FBS, 0.1 mg/mL streptomycin, and 1 mM sodium pyruvate (Biological Industries; Beit-Haemek, Israel). The cells were incubated at 37 °C with 5% CO2 added to the medium and subcultured twice a week until they reached passage #20. Following a day and a half, the cells were replated on coverslips covered with Laminin (1 mg/mL; Sigma, Roedermark, Germany) for electrophysiological recordings. Our previous work has detailed the DNA preparation, cDNA transient transfection, and cell culture of HEK293T [30, 31, 32, 33].
(§2) After that, a patch was placed in front of a rapid perfusion system comprised of a theta tube flow pipe mounted on a piezoelectric translator that was used to wash the cell continuously from one barrel while the other supplied the compound of interest to the cell. Recordings were conducted 36–48 h after transfection at 22 °C, with a membrane potential of −60 mV. Currents were amplified using an integrated patch amplifier (IPA, Sutter Instruments, Novato, CA, USA), filtered at 2 kHz, and digitized at 10 kHz using SutterPatch Software v. 1.1.1 [46]. […] The extracellular medium contained (in mM): 150 NaCl, 2.8 KCl, 0.5 MgCl2, 2 CaCl2, and 10 HEPES, pH 7.4 adjusted with NaOH. The holding potential was typically −60 mV. The sample size was determined to be eight viable cells to calculate the mean inhibition of the derivative of interest. The solution exchange time (10–90% to peak) was estimated at […] using open-tip control at the end of a recording. Inhibition was calculated by comparing the current observed when the cell was supplied with glutamate alone and when the same cell was supplied with both glutamate and the 2,3-BDZ compounds. The initial tube containing only glutamate was reintroduced to the cell to ensure cellular safety and authenticate the antagonist’s findings. This step ensured that the glutamate-induced current observed before the administration of the antagonist was nearly indistinguishable from the current observed after administration.
(§3) The experiment served two purposes: first, determining the whole-cell current amplitude ratio in the absence and presence of the compounds (A/AI) to derive a constant inhibitory value independent of the rate measurement. Second, as an independent control method, a fast exchange solution flow methodology was employed using piezoelectric actuators, providing the fastest exchange solution with open-tip current rise times in the 100–300 μs range to assess the amplitude of the whole-cell current. Detailed data analysis of this process is provided in the supporting information (Tables S1–S4).
(§4) The data acquired were analyzed using Igor Pro7 (Wave Metrics, Inc., Portland, OR, USA). Receptor desensitization (τw des) and deactivation rates were estimated by fitting the current decay starting from 95% of the peak to the baseline current using a double exponential formulation. […]

GluA1/2 = molecular target: T2, GluA1/2 (Rattus norvegicus, UniProt P19490+P19491); experiment: Whole-cell patch-clamp recording of heteromeric GluA1/2 AMPAR expressed in HEK293T cells; conditions: for Amplitude with compound: 10 mM glutamate + 16 µM compound, mean±SEM; for Amplitude with compound / A/AI (current amplitude ratio without/with compound) / t deact (weighted deactivation time constant) / t des (weighted desensitization time constant) / Amplitude, applying glutamate alone after compound: n=8; for A/AI (current amplitude ratio without/with compound): 10 mM glutamate, 16 µM compound; for t deact (weighted deactivation time constant): 1 ms 10 mM glutamate + 16 µM compound; for t des (weighted desensitization time constant): 500 ms 10 mM glutamate + 16 µM compound; for Amplitude, applying glutamate alone after compound: washout/recovery
T2 construct: expressed in transfected cells; host or cells: HEK293T
Experimental: as §1, §2, §3, §4

GluA2 = molecular target: T3, GluA2 (Rattus norvegicus, UniProt P19491); experiment: Whole-cell patch-clamp recording of homomeric GluA2 AMPAR expressed in HEK293T cells; conditions: for Amplitude with compound: 10 mM glutamate + 16 µM compound, mean±SEM; for Amplitude with compound / A/AI (current amplitude ratio without/with compound) / t deact (weighted deactivation time constant) / t des (weighted desensitization time constant) / Amplitude, applying glutamate alone after compound: n=8; for A/AI (current amplitude ratio without/with compound): 10 mM glutamate, 16 µM compound; for t deact (weighted deactivation time constant): 1 ms 10 mM glutamate + 16 µM compound; for t des (weighted desensitization time constant): 500 ms 10 mM glutamate + 16 µM compound; for Amplitude, applying glutamate alone after compound: washout/recovery
T3 construct: expressed in transfected cells; host or cells: HEK293T
Experimental: as §1, §2, §3, §4

GluA2/3 = molecular target: T4, GluA2/3 (Rattus norvegicus, UniProt P19491+P19492); experiment: Whole-cell patch-clamp recording of heteromeric GluA2/3 AMPAR expressed in HEK293T cells; conditions: for Amplitude with compound: 10 mM glutamate + 16 µM compound, mean±SEM; for Amplitude with compound / A/AI (current amplitude ratio without/with compound) / t deact (weighted deactivation time constant) / t des (weighted desensitization time constant) / Amplitude, applying glutamate alone after compound: n=8; for A/AI (current amplitude ratio without/with compound): 10 mM glutamate, 16 µM compound; for t deact (weighted deactivation time constant): 1 ms 10 mM glutamate + 16 µM compound; for t des (weighted desensitization time constant): 500 ms 10 mM glutamate + 16 µM compound; for Amplitude, applying glutamate alone after compound: washout/recovery
T4 construct: expressed in transfected cells; host or cells: HEK293T
Experimental: as §1, §2, §3, §4

AMPA receptor subunits = experiment: Whole-cell patch-clamp recording, statements over all tested AMPAR subunits (GluA1, GluA1/2, GluA2, GluA2/3) in HEK293T cells; conditions: 16 µM compound; for Effect on deactivation rate of the AMPAR subunits examined: 1 ms glutamate
Experimental: as §1, §2, §3, §4

[1] = log of IC50, read-out: Log IC50 (converted)
[2] = normalized peak current, -60 mV, pH 7.4, 22 °C, read-out: IC50

T1 sequence (P19490 19-907 isoform P19490-2 limits assumed): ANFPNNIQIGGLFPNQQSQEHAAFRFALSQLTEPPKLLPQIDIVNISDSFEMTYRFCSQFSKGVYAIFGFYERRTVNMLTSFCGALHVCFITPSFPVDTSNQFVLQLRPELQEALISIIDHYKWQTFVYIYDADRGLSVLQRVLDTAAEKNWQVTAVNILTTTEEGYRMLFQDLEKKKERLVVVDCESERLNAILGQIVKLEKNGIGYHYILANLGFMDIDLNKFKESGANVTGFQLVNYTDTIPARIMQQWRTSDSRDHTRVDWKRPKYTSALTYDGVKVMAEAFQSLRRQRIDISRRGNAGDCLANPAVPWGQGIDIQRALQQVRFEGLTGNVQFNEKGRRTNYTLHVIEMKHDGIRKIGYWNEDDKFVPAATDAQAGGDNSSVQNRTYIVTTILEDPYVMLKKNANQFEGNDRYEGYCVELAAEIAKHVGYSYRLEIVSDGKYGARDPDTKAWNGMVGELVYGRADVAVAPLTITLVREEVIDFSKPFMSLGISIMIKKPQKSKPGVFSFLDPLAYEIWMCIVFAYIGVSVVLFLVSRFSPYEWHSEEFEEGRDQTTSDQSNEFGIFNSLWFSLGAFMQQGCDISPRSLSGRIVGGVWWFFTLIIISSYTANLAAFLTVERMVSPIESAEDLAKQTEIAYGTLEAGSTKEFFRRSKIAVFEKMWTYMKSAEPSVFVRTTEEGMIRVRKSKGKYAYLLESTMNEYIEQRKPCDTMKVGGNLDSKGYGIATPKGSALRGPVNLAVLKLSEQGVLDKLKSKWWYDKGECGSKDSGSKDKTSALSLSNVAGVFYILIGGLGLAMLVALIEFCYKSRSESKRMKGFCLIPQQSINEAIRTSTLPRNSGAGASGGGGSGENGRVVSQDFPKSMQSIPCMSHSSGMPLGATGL
T2 sequence (P19490 19-907 isoform P19490-2 limits assumed): as above
T2 sequence (P19491 22-883 isoform P19491-2 limits assumed): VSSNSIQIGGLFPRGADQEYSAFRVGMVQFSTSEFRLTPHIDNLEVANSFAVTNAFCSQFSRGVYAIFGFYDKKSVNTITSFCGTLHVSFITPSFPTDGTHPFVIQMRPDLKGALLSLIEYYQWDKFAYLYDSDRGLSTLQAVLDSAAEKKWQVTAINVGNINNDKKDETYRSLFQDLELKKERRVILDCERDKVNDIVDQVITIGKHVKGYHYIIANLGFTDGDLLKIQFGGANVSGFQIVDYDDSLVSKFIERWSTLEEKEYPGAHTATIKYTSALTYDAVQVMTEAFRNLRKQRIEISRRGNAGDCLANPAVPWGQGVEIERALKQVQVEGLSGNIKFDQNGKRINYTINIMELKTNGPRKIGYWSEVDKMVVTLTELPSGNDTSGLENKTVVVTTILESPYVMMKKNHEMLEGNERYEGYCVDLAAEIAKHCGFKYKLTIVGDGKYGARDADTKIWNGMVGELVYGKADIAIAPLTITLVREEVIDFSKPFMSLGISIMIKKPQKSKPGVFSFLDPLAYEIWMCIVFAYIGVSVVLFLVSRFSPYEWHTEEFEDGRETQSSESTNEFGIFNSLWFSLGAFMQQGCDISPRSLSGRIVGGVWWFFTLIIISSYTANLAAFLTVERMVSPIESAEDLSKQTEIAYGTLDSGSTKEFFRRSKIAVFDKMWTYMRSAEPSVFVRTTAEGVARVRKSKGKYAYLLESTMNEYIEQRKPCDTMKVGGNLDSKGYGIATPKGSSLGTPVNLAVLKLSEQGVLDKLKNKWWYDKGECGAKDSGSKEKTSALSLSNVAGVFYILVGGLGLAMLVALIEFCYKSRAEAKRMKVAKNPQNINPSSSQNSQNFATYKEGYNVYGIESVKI
T3 sequence (P19491 22-883 isoform P19491-2 limits assumed): as above
T4 sequence (P19491 22-883 isoform P19491-2 limits assumed): as above
T4 sequence (P19492 23-888 isoform P19492-2 limits assumed): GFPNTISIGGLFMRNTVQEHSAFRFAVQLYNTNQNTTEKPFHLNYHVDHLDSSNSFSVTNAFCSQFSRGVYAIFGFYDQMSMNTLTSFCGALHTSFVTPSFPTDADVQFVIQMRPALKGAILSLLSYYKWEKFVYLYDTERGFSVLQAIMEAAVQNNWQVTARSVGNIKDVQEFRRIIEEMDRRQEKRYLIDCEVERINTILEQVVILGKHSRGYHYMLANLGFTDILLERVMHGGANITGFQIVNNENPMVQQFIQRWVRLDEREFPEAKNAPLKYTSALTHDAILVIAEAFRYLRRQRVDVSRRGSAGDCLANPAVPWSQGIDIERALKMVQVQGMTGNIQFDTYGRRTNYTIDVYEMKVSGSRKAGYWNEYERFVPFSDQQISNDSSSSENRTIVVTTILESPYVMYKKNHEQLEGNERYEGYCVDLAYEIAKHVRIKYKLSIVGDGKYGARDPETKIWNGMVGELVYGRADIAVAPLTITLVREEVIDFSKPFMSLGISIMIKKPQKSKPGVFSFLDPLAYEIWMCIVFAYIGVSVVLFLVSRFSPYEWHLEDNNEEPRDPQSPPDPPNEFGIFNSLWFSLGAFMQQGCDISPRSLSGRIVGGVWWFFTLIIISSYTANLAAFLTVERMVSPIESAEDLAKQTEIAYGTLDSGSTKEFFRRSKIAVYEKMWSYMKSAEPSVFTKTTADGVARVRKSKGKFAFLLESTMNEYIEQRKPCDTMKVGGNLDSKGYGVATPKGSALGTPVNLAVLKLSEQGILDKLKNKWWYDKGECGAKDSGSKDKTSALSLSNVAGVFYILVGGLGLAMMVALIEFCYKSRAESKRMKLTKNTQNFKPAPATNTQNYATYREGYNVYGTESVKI

Compound | Amplitude with compound (GluA1; -60 mV, pH 7.4, 22 °C) | A/AI (current amplitude ratio without/with compound) (GluA1) | t deact (weighted deactivation time constant) (GluA1) | t des (weighted desensitization time constant) (GluA1) | IC50 (GluA1; [1]) | IC50 (GluA1; [2]) | Amplitude, applying glutamate alone after compound (GluA1) | Amplitude with compound (GluA1/2; -60 mV, pH 7.4, 22 °C) | A/AI (current amplitude ratio without/with compound) (GluA1/2) | t deact (weighted deactivation time constant) (GluA1/2) | t des (weighted desensitization time constant) (GluA1/2) | IC50 (GluA1/2; [1]) | IC50 (GluA1/2; [2]) | Amplitude, applying glutamate alone after compound (GluA1/2) | Amplitude with compound (GluA2; -60 mV, pH 7.4, 22 °C) | A/AI (current amplitude ratio without/with compound) (GluA2) | t deact (weighted deactivation time constant) (GluA2) | t des (weighted desensitization time constant) (GluA2) | IC50 (GluA2; [1]) | IC50 (GluA2; [2]) | other results
COc1cc(N)ccc1C1=NNC(=O)Cc2cc3c(cc21)OCO3 [2,3-BDZ-2, 1-(2-Methoxy-4-aminophenyl)-7,8-(methylenedioxy)-3,5-dihydro-4H-2,3-benzodiazepin-4-one] | 93±10.0 pA | 9.82±0.7 | 3.6 ± 0.3 ms | 1.8 ± 0.1 ms | 3.47 µM | 3.51 µM | 914±40 pA | 53±3.0 pA | 9.91±0.6 | 3.9 ± 0.4 ms | 3.8 ± 0.3 ms | 3.39 µM | 3.43 µM | 523±33 pA | 127±12.0 pA | 10.42±0.8 | 5.1 ± 0.4 ms | 1.6 ± 0.05 ms | 3.39 µM | 3.36 µM | Amplitude, applying glutamate alone after compound (GluA2): 1310±42 pA; Amplitude with compound (GluA2/3; -60 mV, pH 7.4, 22 °C): 52±7.0 pA; A/AI (current amplitude ratio without/with compound) (GluA2/3): 10.28±0.6; t deact (weighted deactivation time constant) (GluA2/3): 4.8 ± 0.5 ms; t des (weighted desensitization time constant) (GluA2/3): 1.7 ± 0.08 ms; IC50 (GluA2/3; [1]): 3.47 µM; IC50 (GluA2/3; [2]): 3.45 µM; Amplitude, applying glutamate alone after compound (GluA2/3): 532±26 pA; Reduction in AMPAR subunit currents (AMPA receptor subunits): approximately 10 fold; Effect on deactivation rate of the AMPAR subunits examined (AMPA receptor subunits): nearly doubles; Reduction in the desensitization rate of the investigated subunits (AMPA receptor subunits; 500 ms glutamate): 1–2 fold
COc1cc([N+](=O)[O-])ccc1C1=NNC(=O)Cc2cc3c(cc21)OCO3 [2,3-BDZ-4, 1-(2-Methoxy-4-nitrophenyl)-7,8-(methylenedioxy)-3,5-dihydro-4H-2,3-benzodiazepin-4-one] | 277±14 pA | 3.41±0.2 | 2.3 ± 0.1 ms | 2.2 ± 0.1 ms | 6.76 µM | 6.8 µM | 942±44 pA | 170±9 pA | 3.44±0.2 | 2.7 ± 0.2 ms | 5.0 ± 0.3 ms | 6.76 µM | 6.69 µM | 583±40 pA | 364±17 pA | 3.68±0.1 | 2.7 ± 0.1 ms | 2.5 ± 0.1 ms | 6.76 µM | 6.75 µM | Amplitude, applying glutamate alone after compound (GluA2): 1340±52 pA; Amplitude with compound (GluA2/3; -60 mV, pH 7.4, 22 °C): 146±14 pA; A/AI (current amplitude ratio without/with compound) (GluA2/3): 3.56±0.3; t deact (weighted deactivation time constant) (GluA2/3): 2.8 ± 0.2 ms; t des (weighted desensitization time constant) (GluA2/3): 2.6 ± 0.2 ms; IC50 (GluA2/3; [1]): 6.76 µM; IC50 (GluA2/3; [2]): 6.69 µM; Amplitude, applying glutamate alone after compound (GluA2/3): 516±23 pA; Effect on desensitization rate (AMPA receptor subunits): no change; Reduction in AMPAR subunit currents (AMPA receptor subunits): 3 fold; Effect on deactivation rate of the AMPAR subunits examined (AMPA receptor subunits): no change
